The text below walks through data of patent US10988477B2 (Merck Patent GmbH, priority 2018, dated 2021).

Where only a bound is given, the exact number is not on record here.

What is called IC50 is the concentration that gives 50% inhibition. Higher therefore signals weaker potency in that assay.

The target of assay [1] is intracellular GCN2 (phosphorylation of the GCN2 substrate eIF2α) (Homo sapiens, UniProt Q9P2K8). Description: GCN2 cellular inhibition assay (AlphaScreen SureFire P-eIF2α Ser51, borrelidin-treated U2OS cells). Format: cell-based. Conditions: biomarker assay, phosphorylated eIF2α Ser51 in borrelidin-treated U2OS cells. Put shortly: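 U2OS, overnight attach; cpd 4-fold serial dil. from 40 μM final; borrelidin 10 μM, 1 h 37 °C/5% CO2; lyse; AlphaScreen P-eIF2α Ser51 (acceptor 2 h, donor overnight, RT, dark); % inhib. vs borrelidin-only.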
Sequence of intracellular GCN2 (phosphorylation of the GCN2 substrate eIF2α) (Q9P2K8 whole entry): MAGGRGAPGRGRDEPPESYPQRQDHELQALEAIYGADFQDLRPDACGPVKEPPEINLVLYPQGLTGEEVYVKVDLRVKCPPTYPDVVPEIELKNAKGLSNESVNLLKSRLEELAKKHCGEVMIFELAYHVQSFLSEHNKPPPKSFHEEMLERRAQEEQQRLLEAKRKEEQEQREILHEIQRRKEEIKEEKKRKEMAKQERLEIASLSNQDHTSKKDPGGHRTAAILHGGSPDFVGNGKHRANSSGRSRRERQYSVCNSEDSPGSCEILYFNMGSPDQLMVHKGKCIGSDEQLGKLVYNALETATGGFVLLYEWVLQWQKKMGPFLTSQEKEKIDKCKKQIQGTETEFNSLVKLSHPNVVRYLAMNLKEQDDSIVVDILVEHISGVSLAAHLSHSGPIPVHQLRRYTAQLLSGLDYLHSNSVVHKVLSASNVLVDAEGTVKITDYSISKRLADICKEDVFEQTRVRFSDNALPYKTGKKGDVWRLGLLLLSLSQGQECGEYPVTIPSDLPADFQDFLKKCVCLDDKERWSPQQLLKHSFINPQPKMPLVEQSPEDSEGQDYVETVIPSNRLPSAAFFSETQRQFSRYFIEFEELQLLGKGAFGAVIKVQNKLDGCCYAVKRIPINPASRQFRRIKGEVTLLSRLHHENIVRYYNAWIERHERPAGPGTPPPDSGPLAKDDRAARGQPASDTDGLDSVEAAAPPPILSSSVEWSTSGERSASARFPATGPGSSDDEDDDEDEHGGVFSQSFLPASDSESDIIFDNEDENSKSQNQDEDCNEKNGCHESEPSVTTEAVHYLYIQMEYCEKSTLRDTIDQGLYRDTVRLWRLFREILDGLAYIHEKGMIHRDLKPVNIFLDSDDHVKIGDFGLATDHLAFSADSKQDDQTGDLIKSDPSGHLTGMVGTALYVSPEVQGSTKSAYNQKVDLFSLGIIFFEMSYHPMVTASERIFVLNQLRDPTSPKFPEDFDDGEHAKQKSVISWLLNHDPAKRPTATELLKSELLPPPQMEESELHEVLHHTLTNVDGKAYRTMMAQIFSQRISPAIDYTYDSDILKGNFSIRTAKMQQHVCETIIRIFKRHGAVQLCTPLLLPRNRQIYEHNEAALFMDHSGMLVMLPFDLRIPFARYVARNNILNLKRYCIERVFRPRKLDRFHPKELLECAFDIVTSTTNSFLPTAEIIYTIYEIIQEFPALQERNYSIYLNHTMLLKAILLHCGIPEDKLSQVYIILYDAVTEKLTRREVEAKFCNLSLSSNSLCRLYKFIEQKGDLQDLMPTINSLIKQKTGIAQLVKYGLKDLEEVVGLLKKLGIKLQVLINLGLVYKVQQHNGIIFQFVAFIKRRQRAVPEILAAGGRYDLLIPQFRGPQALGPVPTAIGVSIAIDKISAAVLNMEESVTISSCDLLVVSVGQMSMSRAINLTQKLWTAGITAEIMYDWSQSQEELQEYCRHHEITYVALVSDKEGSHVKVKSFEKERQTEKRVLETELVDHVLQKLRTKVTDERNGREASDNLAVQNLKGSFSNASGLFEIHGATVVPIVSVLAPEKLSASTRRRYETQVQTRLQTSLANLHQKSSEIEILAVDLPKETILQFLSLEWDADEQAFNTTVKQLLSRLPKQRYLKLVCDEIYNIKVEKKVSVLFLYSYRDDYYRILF
(In Alpha technology, singlet oxygen from a donor bead excites a nearby acceptor bead.)

For a further assay, the target named is GCN2 kinase (Homo sapiens, UniProt Q9P2K8). Description: GCN2 enzyme inhibition assay (Transcreener ADP2 fluorescence polarization). The format is biochemical. To be noted: 280 μM ATP. The gist of the method: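 ADP formation read by Transcreener FP after a 1 h, 25 °C kinase reaction containing 280 μM ATP, 200 μM (RS)7 substrate and 4 nM GCN2, pH 7.5 Tris buffer. Compounds (0–8 μM final) were added 10 min before ATP. Percent inhibition gave IC50 and apparent Ki via tight-binding fit.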
Sequence of GCN2 kinase (Q9P2K8 whole entry): as above
For orientation: Fluorescence polarisation rises when a labelled molecule tumbles more slowly, as on binding a larger partner.

Where [2] appears, read: compounds of Formula II, 4 nM GCN2 kinase.
[3] abbreviates: Enzyme activity for compounds of Formula IV, Ki(app), 25° C.

On to `CC1C(CNS(C)(=O)=O)C(C)(O)CCN1c1cc(-c2cnc3ccc(C(F)F)nn23)ncn1` (centres unmarked) [II-366, N-((1-(6-(6-(Difluoromethyl)imidazo[1,2-b]pyridazin-3-yl)pyrimidin-4-yl)-4-hydroxy-2,4-dimethylpiperidin-3-yl)methyl)methanesulfonamide], for which the IC50 in assay [1] (compounds of Formula II) was less than 500 nM. The compound also yielded a Ki at GCN2 kinase (setting [2]) of less than 10 nM.

`CC1(NS(C)(=O)=O)CCCN(c2cc(-c3cnc4ccc(C(F)F)nn34)ncn2)C1` (centres unmarked) [II-412, N-(1-(6-(6-(Difluoromethyl)imidazo[1,2-b]pyridazin-3-yl)pyrimidin-4-yl)-3-methylpiperidin-3-yl)methanesulfonamide] had an IC50 in assay [1] (compounds of Formula II) of 500 to 5000 nM. The Ki on GCN2 kinase (setting [2]) lay within 10 to 1000 nM.

`CS(=O)(=O)NCC1CCN(c2cc(-c3cnc4ccc(C(F)F)nn34)ccn2)C1` (centres unmarked) [II-123, N-((1-(4-(6-(Difluoromethyl)imidazo[1,2-b]pyridazin-3-yl)pyridin-2-yl)pyrrolidin-3-yl)methyl)methanesulfonamide]: the IC50 in assay [1] (compounds of Formula II) lay in the range of 500 to 5000 nM. Further, the Ki at GCN2 kinase (setting [2]) was 10 to 1000 nM.

`CC1C[S+]([O-])CCN1c1cc(-c2cnc3ccc(C(F)F)nn23)ncn1` (single isomer, unassigned) [II-355, 4-(6-(6-(Difluoromethyl)imidazo[1,2-b]pyridazin-3-yl)pyrimidin-4-yl)-3-methylthiomorpholine 1-oxide] came in with an IC50 in assay [1] (compounds of Formula II) greater than 5000 nM. Further, the Ki at GCN2 kinase (setting [2]) was in the range of 10 to 1000 nM.

Compound `OC[C@@H]1CCCN(c2ccnc(-c3cnc4cnc(C(F)F)cn34)n2)C1` [IV-138, (R)-(1-(2-(6-(Difluoromethyl)imidazo[1,2-a]pyrazin-3-yl)pyrimidin-4-yl)piperidin-3-yl)methanol] yielded an IC50 in assay [1] (compounds of Formula IV) greater than 5000 nM. This compound displayed a Ki on GCN2 kinase (setting [3]) of 100 to 1000 nM.

As for `NC(=O)[C@H]1CCCN(c2cc(-c3cnc4ccc(C(F)F)nn34)ccn2)C1` [II-143, (S′)-1-(4-(6-(Difluoromethyl)imidazo[1,2-b]pyridazin-3-yl)pyridin-2-yl)piperidine-3-carboxamide], the IC50 in assay [1] (compounds of Formula II) is less than 500 nM. On GCN2 kinase (setting [2]), this compound registered a Ki of less than 10 nM.

For the compound `NS(=O)(=O)NCC1CCCN(c2cc(-c3cnc4ccc(C(F)F)nn34)ncn2)C1` (single isomer, unassigned) [II-278], in assay [1] (compounds of Formula II), the IC50 is less than 500 nM. This compound also came in with a Ki at GCN2 kinase (setting [2]) of less than 10 nM.

As to `CC(=O)N1CCN(c2cc(-c3cnc4ccc(C(F)F)nn34)ncn2)CC1` [II-186, 1-(4-(6-(6-(Difluoromethyl)imidazo[1,2-b]pyridazin-3-yl)pyrimidin-4-yl)piperazin-1-yl)ethan-1-one], the concentration for half-maximal inhibition (IC50) in assay [1] (compounds of Formula II) is 500 to 5000 nM. The Ki on GCN2 kinase (setting [2]) lay within 10 to 1000 nM.

Compound `Cc1cc(-c2cnc3ccc(C(F)F)nn23)cc(N2CCCC(CNS(C)(=O)=O)C2)n1` (centres unmarked) [II-129, N-((1-(4-(6-(Difluoromethyl)imidazo[1,2-b]pyridazin-3-yl)-6-methylpyridin-2-yl)piperidin-3-yl)methyl)methanesulfonamide] came in with an IC50 in assay [1] (compounds of Formula II) of 500 to 5000 nM. On GCN2 kinase (setting [2]), this compound displayed a Ki of less than 10 nM.

The compound `CS(=O)(=O)CC1CCCN(c2cc(-c3cnc4ccc(C(F)F)nn34)ncn2)C1` (centres unmarked) [II-430, 6-(Difluoromethyl)-3-(6-(3-((methylsulfonyl)methyl)piperidin-1-yl)pyrimidin-4-yl)imidazo[1,2-b]pyridazine] displayed an IC50 in assay [1] (compounds of Formula II) of 500 to 5000 nM. The compound also showed a Ki on GCN2 kinase (setting [2]) of 10 to 1000 nM.

`CC1C(c2cn[nH]c2)NCCN1c1ccnc(-c2cnc3cnc(Br)cn23)n1` (single isomer, unassigned) [IV-414, 6-Bromo-3-(4-(2-methyl-3-(1H-pyrazol-4-yl)piperazin-1-yl)pyrimidin-2-yl)imidazo[1,2-a]pyrazine] returned an IC50 in assay [1] (compounds of Formula IV) of less than 500 nM. On GCN2 kinase (setting [3]), this compound had a Ki of less than 10 nM.

In turn, `OCC1CN(c2cc(-c3cnc4ccc(C(F)F)nn34)ncn2)CC2(CC2)O1` (centres unmarked) [II-359, (7-(6-(6-(Difluoromethyl)imidazo[1,2-b]pyridazin-3-yl)pyrimidin-4-yl)-4-oxa-7-azaspiro[2.5]octan-5-yl)methanol] had a half-inhibitory concentration (IC50) in assay [1] (compounds of Formula II) greater than 5000 nM. This compound had a Ki at GCN2 kinase (setting [2]) of 10 to 1000 nM.

For the compound `CC(=O)N1CCN(c2cc(-c3cnc4ccc(CO)nn34)ccn2)CC1` [II-185, 1-(4-(4-(6-(Hydroxymethyl)imidazo[1,2-b]pyridazin-3-yl)pyridin-2-yl)piperazin-1-yl)ethanone], the IC50 in assay [1] (compounds of Formula II) was greater than 5000 nM. The compound further displayed a Ki on GCN2 kinase (setting [2]) of 10 to 1000 nM.

In turn, `CC1CN(c2ccnc(-c3cnc4cnc(C(F)(F)F)cn34)n2)C(C)C(c2ccc(=O)[nH]c2)N1` (centres unmarked) [IV-677, 5-(3,6-Dimethyl-4-(2-(6-(trifluoromethyl)imidazo[1,2-a]pyrazin-3-yl)pyrimidin-4-yl)piperazin-2-yl)pyridin-2(1H)-one] yielded an IC50 in assay [1] (compounds of Formula IV) of 500 to 5000 nM. In addition, at GCN2 kinase (setting [3]), the Ki lay in the range of 10 to 100 nM.

With `Cc1[nH]ncc1C1CN(c2cc(-c3cnc4ccc(C(F)(F)F)nn34)ncn2)CC(C)O1` (centres unmarked) [II-762, 2-methyl-6-(5-methyl-1H-pyrazol-4-yl)-4-(6-(6-(trifluoromethyl)imidazo[1,2-b]pyridazin-3-yl)pyrimidin-4-yl)morpholine], the IC50 in assay [1] (compounds of Formula II) is 500 to 5000 nM; at GCN2 kinase (setting [2]) it was 10 to 1000 nM.

In assay [1] (compounds of Formula IV), `FC(F)c1cn2c(-c3nccc(N4CCC(C5CCOCC5)C4)n3)cnc2cn1` (centres unmarked) [IV-102, 6-(Difluoromethyl)-3-(4-(3-(tetrahydro-2H-pyran-4-yl)pyrrolidin-1-yl)pyrimidin-2-yl)imidazo[1,2-a]pyrazine] registered an IC50 greater than 5000 nM. This compound also showed a Ki on GCN2 kinase (setting [3]) of 100 to 1000 nM.

Regarding `NCc1cccc(-c2ccnc(-c3cnc4cnc(C(F)F)cn34)n2)c1` [IV-159, (3-(2-(6-(Difluoromethyl)imidazo[1,2-a]pyrazin-3-yl)pyrimidin-4-yl)phenyl)methanamine], in assay [1] (compounds of Formula IV), the IC50 is greater than 5000 nM. Moreover, the Ki on GCN2 kinase (setting [3]) lay within 100 to 1000 nM.

In assay [1] (compounds of Formula IV), `CNc1cc(N2CC(C)NC(c3cn[nH]c3)C2C)nc(-c2cnc3cnc(C(F)(F)F)cn23)n1` (centres unmarked) [IV-578, 6-(2,5-Dimethyl-3-(1H-pyrazol-4-yl)piperazin-1-yl)-N-methyl-2-(6-(trifluoromethyl)imidazo[1,2-a]pyrazin-3-yl)pyrimidin-4-amine] showed an IC50 of 500 to 5000 nM. This compound also yielded a Ki at GCN2 kinase (setting [3]) of less than 10 nM.

In turn, `CC1CN(c2ccnc(-c3cnc4cnc(C(F)(F)F)cn34)n2)CC(c2cn[nH]c2)O1` (single isomer, unassigned) [IV-15, 2-Methyl-6-(1H-pyrazol-4-yl)-4-(2-(6-(trifluoromethyl)imidazo[1,2-a]pyrazin-3-yl)pyrimidin-4-yl)morpholine] came in with an IC50 in assay [1] (compounds of Formula IV) of 500 to 5000 nM. This compound returned a Ki on GCN2 kinase (setting [3]) of 10 to 100 nM.

Turning to `O=C1NCC2CN(c3cc(-c4cnc5ccc(C(F)F)nn45)ccn3)CCN12` (centres unmarked) [II-175, 7-(4-(6-(Difluoromethyl)imidazo[1,2-b]pyridazin-3-yl)pyridin-2-yl)hexahydroimidazo[1,5-a]pyrazin-3(2H)-one], the IC50 in assay [1] (compounds of Formula II) is 500 to 5000 nM. The compound further yielded a Ki on GCN2 kinase (setting [2]) of 10 to 1000 nM.

`CC1C(CNS(C)(=O)=O)C(F)(F)C(C)CN1c1cc(-c2cnc3ccc(C(F)F)nn23)ncn1` (centres unmarked) [II-475, N-((1-(6-(6-(Difluoromethyl)imidazo[1,2-b]pyridazin-3-yl)pyrimidin-4-yl)-4,4-difluoro-2,5-dimethylpiperidin-3-yl)methyl)methanesulfonamide] showed an IC50 in assay [1] (compounds of Formula II) of less than 500 nM. The Ki on GCN2 kinase (setting [2]) lay within 10 to 1000 nM.

Take `Fc1n[nH]cc1C1CCCN(c2ccnc(-c3cnc4cnc(C(F)(F)F)cn34)n2)C1` (single isomer, unassigned) [IV-491, 3-(4-(3-(3-Fluoro-1H-pyrazol-4-yl)piperidin-1-yl)pyrimidin-2-yl)-6-(trifluoromethyl)imidazo[1,2-a]pyrazine]: the IC50 in assay [1] (compounds of Formula IV) was less than 500 nM. The compound further gave a Ki on GCN2 kinase (setting [3]) of less than 10 nM.
